The subject of data set [1] is Streptococcus pneumoniae. As to the kind of experiment: Growth inhibition of Streptococcus pneumoniae ATCC 49619 incubated in MHB medium with lysed horse blood and 5% CO2 for 24 hrs. The data set is classed as organism-based.
Data set [2] has as its system Klebsiella pneumoniae. The experiment in a line: Growth inhibition of Klebsiella pneumoniae ATCC 700603 incubated for 18 hrs. Format: organism-based.
Data set [3] has as its system Staphylococcus aureus. The experiment in a line: Growth inhibition of Staphylococcus aureus ATCC 29213 incubated in MHB broth for 24 hrs. Format: organism-based.
Data set [4] has as its system Acinetobacter baumannii. As to the kind of experiment: Growth inhibition of Acinetobacter baumannii ATCC 19606 incubated for 18 hrs without shaking by absorbance based monochromator plate reader analysis. The data set is classed as organism-based, ATCC 19606 = CIP 70.34 = JCM 6841. Conditions: in vitro.
Data set [5] deals with Clostridioides difficile. The experiment in a line: Antibacterial activity against Clostridium difficile ATCC 700057 incubated for 2 to 4 hrs in pre-reduced brucella broth supplemented with haemin/vitamin K and further incubation in anaerobic condition for 48 hrs. The data set is classed as functional.
In data set [6] the test system is Enterococcus faecalis. As to the kind of experiment: Growth inhibition of Enterococcus faecalis ATCC 29212 incubated in MHB broth for 24 hrs. The data set is classed as organism-based.
Data set [7] has as its system Pseudomonas aeruginosa. The experiment in a line: Growth inhibition of Pseudomonas aeruginosa ATCC 27853 incubated for 18 hrs. Format: organism-based.
In data set [8] the test system is Escherichia coli. As to the kind of experiment: Growth inhibition of Escherichia coli ATCC 25922 incubated for 18 hrs. Format: organism-based.
Data set [9] relates to Clostridioides difficile. The experiment in a line: Antibacterial activity against Clostridium difficile NSW132 RT027 incubated for 2 to 4 hrs in pre-reduced brucella broth supplemented with haemin/vitamin K and further incubation in anaerobic condition for 48 hrs. The data set is classed as functional.
A short description of data set [10]: Cytotoxicity against HEK293 cells assessed as decrease in cell viability after 20 hrs by resazurin dye-based fluorescence assay. Particulars: human.
Data set [11] concerns Staphylococcus aureus. As to the kind of experiment: Growth inhibition of methicillin-resistant Staphylococcus aureus ATCC 43300 incubated for 18 hrs. Format: organism-based.

A value given as a limit tells only on which side of the number the result lay.

Turning to `CC(C)CCOc1ccccc1-c1ccccc1OCc1cn([C@H](CCCNC(=N)N)C(=O)NCc2ccc(C(F)(F)F)cc2)nn1.Cl`, the MIC is 32 µg/mL in data set [1]; over 32 µg/mL in data set [2]; 16 µg/mL in data set [3]; over 32 µg/mL in data set [4]; 128 µg/mL in data set [5]; 16 µg/mL in [6]. Besides, the MIC is over 32 µg/mL in data set [7], over 32 µg/mL in data set [8] and 128 µg/mL in data set [9]. Moreover, in [10], the CC50 (in general, the concentration giving 50% cytotoxicity) at 20 h was over 32 µg/mL.
Turning to `CC(C)CCOc1ccc2ccccc2c1-c1c(OCc2cn([C@H](CCCCN)C(=O)N[C@H](CCCNC(=N)N)Cn3cc(CC4CCCCC4)nn3)nn2)ccc2ccccc12.Cl.Cl`, the MIC is 4 µg/mL in data set [1]; over 32 µg/mL in data set [2]; 4 µg/mL in data set [3]; 8 µg/mL in [4]; 2 µg/mL in data set [11]; 16 µg/mL in [5]. The MIC in [6] was 4 µg/mL; in [7], 32 µg/mL; in data set [8], over 32 µg/mL; in data set [9], 16 µg/mL. The half-maximal cytotoxic concentration (CC50) at 20 h in data set [10] is 16.6 µg/mL.
As to `CC(C)CCOc1ccccc1-c1ccccc1OCc1cn([C@H](CCCNC(=N)N)C(=O)NCCc2ccccc2)nn1.Cl`, the MIC in data set [1] was 4 µg/mL; in data set [2] it was over 32 µg/mL; in [3] it was 2 µg/mL; in data set [4], 32 µg/mL; in [11] it was 8 µg/mL; in data set [5] it was 8 µg/mL. Besides, the MIC was 4 µg/mL in data set [6], over 32 µg/mL in data set [7], over 32 µg/mL in data set [8] and 32 µg/mL in [9]. Besides, the half-maximal cytotoxic concentration (CC50) at 20 h in [10] is 17.9 µg/mL.
As to COLISTIN, the MIC stood at 0.25 µg/mL in data set [2], 0.25 µg/mL in [4], 0.25 µg/mL in [7] and 0.125 µg/mL in [8].
On to `CC(C)CCOc1ccccc1-c1ccccc1OCc1cn([C@H](CCCNC(=N)N)C(=O)NCc2cc(F)cc(F)c2)nn1.Cl`, for which the MIC in data set [1] was 16 µg/mL; in [2] it was over 32 µg/mL; in data set [3] it was 8 µg/mL; in data set [4], over 32 µg/mL; in [5] it was 32 µg/mL; in data set [6] it was 8 µg/mL. Also, the MIC in [7] is over 32 µg/mL; in [8], over 32 µg/mL; in data set [9] it was 32 µg/mL. The half-maximal cytotoxic concentration (CC50) at 20 h in data set [10] came to 22.9 µg/mL.
`CC(C)CCOc1ccccc1-c1ccccc1OCc1cn([C@H](CCCNC(=N)N)C(=O)NC2CC2)nn1.Cl`: the MIC was 8 µg/mL in [1]; over 32 µg/mL in data set [2]; 16 µg/mL in data set [3]; over 32 µg/mL in data set [4]; 64 µg/mL in data set [5]; 32 µg/mL in data set [6]. Further, the MIC in data set [7] was over 32 µg/mL; in data set [8] it was over 32 µg/mL; in data set [9], 128 µg/mL. The 50% cytotoxic concentration (CC50) at 20 h in data set [10] came out at 20 µg/mL.
Consider `CC(C)CCOc1ccccc1-c1ccccc1OCc1cn([C@H](CCCCN)C(=O)NCc2ccccc2)nn1.Cl`, for which the MIC was 8 µg/mL in data set [1]; over 32 µg/mL in data set [2]; 8 µg/mL in [3]; 32 µg/mL in data set [4]; 32 µg/mL in [5]; 16 µg/mL in [6]. Also, the MIC is 32 µg/mL in data set [7], over 32 µg/mL in data set [8] and 32 µg/mL in data set [9]. In addition, in data set [10], the CC50 at 20 h was over 32 µg/mL.

For the origin of these results see ChEMBL document CHEMBL4393656, “Cationic biaryl 1,2,3-triazolyl peptidomimetic amphiphiles targeting Clostridioides (Clostridium) difficile: Synthesis, antibacterial evaluation and an in vivo C. difficile infection model” (Eur J Med Chem, 2019).
